Experimental data as given in patent US20260132125A1, “PESTICIDALLY ACTIVE FUSED BICYCLIC HETEROAROMATIC COMPOUNDS” (priority 2022, published 2026).

What was measured:
Assay type in all cases: in vivo
Myzus persicae = test: Example B4: activity against Myzus persicae (green peach aphid), intrinsic activity; settings: 120 h, test rate 12 ppm, 5 days after infestation
Description: Test compounds prepared from 10′000 ppm DMSO stock solutions were applied by pipette into 24-well microtiter plates and mixed with sucrose solution. The plates were closed with a stretched Parafilm. A plastic stencil with 24 holes was placed onto the plate and infested pea seedlings were placed directly on the Parafilm. The infested plate was closed with a gel blotting paper and another plastic stencil and then turned upside down. The samples were assessed for mortality 5 days after infestation.

Diabrotica balteata = test: Example B2: activity against Diabrotica balteata (corn root worm), maize sprouts; settings: 96 h, L2 larvae, 4 days after infestation, read-out: effect in at least one of the two categories (mortality or growth inhibition)
Description: Maize sprouts placed onto an agar layer in 24-well microtiter plates were treated with aqueous test solutions prepared from 10′000 ppm DMSO stock solutions by spraying. After drying, the plates were infested with L2 larvae (6 to 10 per well). The samples were assessed for mortality and growth inhibition in comparison to untreated samples 4 days after infestation. The following compounds gave an effect of at least 80% in at least one of the two categories (mortality or growth inhibition) at an application rate of 200 ppm: P1, P2, P3, P4, P5, P7, P8, P9, P10, P11, P12, P13, P14, P15, P16, P17, P18, P19, P20, P21, P22, P23, P24, P25, P26, P27, P28, P29, P30, P31, P33, P34, P35, P36, P37, P38, P39, P40, P41, P42, P43, P45, P46, P47, P48, P49, P50, P51, P52, P53, P55, P57, P58, P59, P60, P61, P62, P63, P64, P65, P66, P67, P69, P71, P75, P81, P82, P83.

Plutella xylostella = test: Example B5: activity against Plutella xylostella (diamond back moth), artificial diet, eggs; settings: 192 h, 8 days after infestation, read-out: effect in at least one of the two categories (mortality or growth inhibition)
Description: 24-well microtiter plates with artificial diet were treated with aqueous test solutions prepared from 10′000 ppm DMSO stock solutions by pipetting. After drying, Plutella eggs were pipetted through a plastic stencil onto a gel blotting paper and the plate was closed with it. The samples were assessed for mortality and growth inhibition in comparison to untreated samples 8 days after infestation. The following compounds gave an effect of at least 80% in at least one of the two categories (mortality or growth inhibition) at an application rate of 200 ppm: P1, P2, P3, P4, P5, P6, P7, P8, P9, P10, P11, P12, P13, P14, P15, P16, P17, P18, P19, P20, P21, P22, P23, P24, P25, P26, P27, P28, P29, P30, P31, P32, P33, P34, P35, P36, P37, P38, P39, P40, P41, P42, P43, P44, P45, P46, P47, P48, P49, P50, P51, P52, P53, P54, P55, P57, P58, P59, P60, P61, P62, P63, P64, P65, P66, P67, P69, P70, P71, P72, P73, P74, P75, P77, P78, P81, P82, P83.

Chilo suppressalis = test: Example B1: activity against Chilo suppressalis (striped rice stemborer), artificial diet; settings: 144 h, 200 ppm, L2 larvae, 6 days after infestation, read-out: control (at least one of mortality, anti-feedant effect, growth inhibition)
Description: 24-well microtiter plates with artificial diet were treated with aqueous test solutions prepared from 10′000 ppm DMSO stock solutions by pipetting. After drying, the plates were infested with L2 larvae (6-8 per well). The samples were assessed for mortality, anti-feeding effect, and growth inhibition in comparison to untreated samples 6 days after infestation. Control of Chilo suppressalis by a test sample is given when at least one of the categories mortality, anti-feedant effect, and growth inhibition is higher than the untreated sample.

Spodoptera littoralis = test: Example B6: activity against Spodoptera littoralis (Egyptian cotton leaf worm), cotton leaf discs; settings: foliar; for percent control (mortality, anti-feedant effect or growth inhibition) at 200 ppm: 72 h, L1 larvae, 3 days after infestation, read-out: control (at least one of mortality, anti-feedant effect, growth inhibition)
Description: Cotton leaf discs were placed onto agar in 24-well microtiter plates and sprayed with aqueous test solutions prepared from 10′000 ppm DMSO stock solutions. After drying the leaf discs were infested with five L1 larvae. The samples were assessed for mortality, anti-feeding effect, and growth inhibition in comparison to untreated samples 3 days after infestation. Control of Spodoptera littoralis by a test sample is given when at least one of the categories mortality, anti-feedant effect, and growth inhibition is higher than the untreated sample.

Pseudoplusia includens = test: Example B9: Pseudoplusia includens (soybean looper), larvicide, feeding/contact, soybean plants; settings: Chrysodeixis includens, 120 h; 50 ppm; L2 larvae; 5 days after infestation; read-out: effect in at least one of the two categories (mortality or growth inhibition)
Description: Soybean plants were treated in a spray chamber, cut off and placed into petri dishes containing wet filter paper. 1d after application leaves were infested with 5 L2 larvae and covered with a fabric filter and plastic lids. 5 days after infestation the samples were assessed for mortality and growth inhibition. The following compounds gave an effect of at least 80% in at least one of the two categories (mortality or growth inhibition) at an application rate of 50 ppm: […]

Compound	mortality at 12 ppm (Myzus persicae)	percent effect (mortality or growth inhibition) at 200 ppm (Diabrotica balteata)	percent effect (mortality or growth inhibition) at 200 ppm (Plutella xylostella)	percent control (mortality, anti-feedant effect or growth inhibition) at 200 ppm (Chilo suppressalis)	percent control (mortality, anti-feedant effect or growth inhibition) at 200 ppm (Spodoptera littoralis)	percent effect (mortality or growth inhibition) at 50 ppm (Pseudoplusia includens)	mortality at 50 ppm (Spodoptera littoralis; 50 ppm)
C[C@H](Nc1ncnc2c(C(F)(F)F)cc(Cl)cc12)c1ncnn1-c1ncc(C(N)=O)s1 [Compound P8]	≥ 80%	≥ 80%	≥ 80%	≥ 80%	≥ 80%	≥ 80%	–
C[C@H](Nc1ncnc2c(Cl)cc(I)cc12)c1ncnn1-c1ncc(C(N)=O)s1 [Compound P37, 2-[5-[(1S)-1-[(8-chloro-6-iodo-quinazolin-4-yl)amino]ethyl]-1,2,4-triazol-1-yl]thiazole-5-carboxamide]	≥ 80%	≥ 80%	≥ 80%	≥ 80%	≥ 80%	–	100%
C[C@H](Nc1ncnc2c(C(F)(F)F)cc(Cl)cc12)c1ncnn1-c1cc(C(=O)NCCC#N)ncn1 [Compound P39]	≥ 80%	≥ 80%	≥ 80%	≥ 80%	≥ 80%	–	–
C[C@H](Nc1ncnc2c(I)cc(Cl)cc12)c1ncnn1-c1cc(C#N)ncn1 [Compound P40, 6-[5-[(1S)-1-[(6-chloro-8-iodo-quinazolin-4-yl)amino]ethyl]-1,2,4-triazol-1-yl]pyrimidine-4-carbonitrile]	≥ 80%	≥ 80%	≥ 80%	≥ 80%	≥ 80%	–	–
C[C@H](Nc1ncnc2c(C(F)(F)F)cc(Cl)cc12)c1ncnn1-c1cc(C(=O)NC(C)(C)C#N)ncn1 [Compound P43, 6-[5-[(1S)-1-[[6-chloro-8-(trifluoromethyl)quinazolin-4-yl]amino]ethyl]-1,2,4-triazol-1-yl]-N-(1-cyano-1-methyl-ethyl)pyrimidine-4-carboxamide]	≥ 80%	≥ 80%	≥ 80%	≥ 80%	≥ 80%	–	–
C[C@H](Nc1ncnc2c(C(F)(F)F)cc(Cl)cc12)c1ncnn1-c1cc(C(=O)N(C)O)ncn1 [Compound P46, 6-[5-[(1S)-1-[[6-chloro-8-(trifluoromethyl)quinazolin-4-yl]amino]ethyl]-1,2,4-triazol-1-yl]-N-hydroxy-N-methyl-pyrimidine-4-carboxamide]	≥ 80%	≥ 80%	≥ 80%	≥ 80%	≥ 80%	–	–
C[C@@H](c1ncnn1-c1cc(C(N)=O)ncn1)N(C)c1ncnc2c(Cl)cc(I)cc12 [Compound P49, 6-[5-[(1S)-1-[(8-chloro-6-iodo-quinazolin-4-yl)-methyl-amino]ethyl]-1,2,4-triazol-1-yl]pyrimidine-4-carboxamide]	≥ 80%	≥ 80%	≥ 80%	≥ 80%	≥ 80%	–	–
C[C@H](Nc1ncnc2c(I)cc(Cl)cc12)c1ncnn1-c1cc(C(=O)N(C)C)ncn1 [Compound P65, 6-[5-[(1S)-1-[(6-chloro-8-iodo-quinazolin-4-yl)amino]ethyl]-1,2,4-triazol-1-yl]-N,N-dimethyl-pyrimidine-4-carboxamide]	≥ 80%	≥ 80%	≥ 80%	≥ 80%	≥ 80%	–	–
C[C@@H](c1ncnn1-c1cc(C(=O)N(C)C)ncn1)N(C)c1ncnc2c(I)cc(Cl)cc12 [Compound P66, 6-[5-[(1S)-1-[(6-chloro-8-iodo-quinazolin-4-yl)-methyl-amino]ethyl]-1,2,4-triazol-1-yl]-N,N-dimethyl-pyrimidine-4-carboxamide]	≥ 80%	≥ 80%	≥ 80%	≥ 80%	≥ 80%	–	–
C[C@H](Nc1ncnc2c(Cl)cc(C(F)(F)F)cc12)c1ncnn1-c1cnc(C(=O)NCC#N)cn1 [Compound P69, 5-[5-[(1S)-1-[[8-chloro-6-(trifluoromethyl)quinazolin-4-yl]amino]ethyl]-1,2,4-triazol-1-yl]-N-(cyanomethyl)pyrazine-2-carboxamide]	≥ 80%	≥ 80%	≥ 80%	≥ 80%	≥ 80%	–	–
C[C@@H](c1ncnn1-c1cc(C(=O)N(C)C2CC2)ncn1)N(C)c1ncnc2c(C(F)(F)F)cc(Cl)cc12 [Compound P81, 6-[5-[(1S)-1-[[6-chloro-8-(trifluoromethyl)quinazolin-4-yl]-methyl-amino]ethyl]-1,2,4-triazol-1-yl]-N-cyclopropyl-N-methyl-pyrimidine-4-carboxamide]	≥ 80%	≥ 80%	≥ 80%	≥ 80%	≥ 80%	–	–
C[C@@H](c1ncnn1-c1cc(C(=O)N(C)CC2CC2)ncn1)N(C)c1ncnc2c(C(F)(F)F)cc(Cl)cc12 [Compound P83, 6-[5-[(1S)-1-[[6-chloro-8-(trifluoromethyl)quinazolin-4-yl]-methyl-amino]ethyl]-1,2,4-triazol-1-yl]-N-(cyclopropylmethyl)-N-methyl-pyrimidine-4-carboxamide]	≥ 80%	≥ 80%	≥ 80%	≥ 80%	≥ 80%	–	–
